Results as given in patent US20210017555A1, “METHOD FOR PRODUCING 4-AMINOCINNAMIC ACID, AND VECTOR AND HOST CELL USED IN SAME” (JAPAN SCIENCE AND TECHNOLOGY AGENCY, priority 2018, published 2021).

Columns and labels:
[1] = Conversion of 4-nitrophenylalanine to 4-aminocinnamic acid in 1 L jar fermenter; format: cell-based, Escherichia coli; conditions: glycerol 10%, pH 8.5, 37° C., 36 hours, air flow 0.02 L/min
Protocol: Conversion of 4-nitrophenylalanine to 4-aminocinnamic acid was carried out using a 1 L jar fermenter (manufactured by Biott: BMJ-01), in the presence of glycerol under the conditions mentioned above. Specifically, 5 mL of the preculture liquid of Example 2 was inoculated to a 1 L jar fermenter containing 0.5 L of TB medium supplemented with 80 mg/L kanamycin sulfate, and cultured at 30° C. for 4 hours, with aeration at 0.7 L/min and stirring at 645 rpm. 0.1 mM IPTG was then added, and the culturing was continued for another 20 hours.
After the completion of the culturing, 7 g/L of 4-nitrophenylalanine and glycerol at a final concentration of 10% were added to the culture solution, and the pH was adjusted to 8.5 with 2N NaOH. The reaction was carried out at 37° C. for 36 hours with an air flow rate of 0.02 L/min and stirring at 645 rpm. When the pH dropped below 8.0, 2N NaOH was added. During the reaction, the reaction solution was sampled, and 4-nitrophenylalanine, 4-nitrocinnamic acid and 4-aminocinnamic acid were quantified.

[2] = Resting-cell reaction of PAL-producing E. coli, 4-nitrophenylalanine to 4-nitrocinnamic acid; format: cell-based, Escherichia coli; conditions: resting cells; for amount of 4-nitrocinnamic acid in the reaction supernatant: 24 hours, 28° C., pH 8.5, 20 mM 4-nitrophenylalanine, versus control Escherichia coli
Protocol: The CamPAL-, LiePAL-, and RgPAL-producing Escherichia coli strains mentioned above were precultured using 3 mL of LB medium containing 40 mg/L kanamycin sulfate at 28° C. for 16 hours with stirring at 300 rpm. 1 mL of this pre-cultured liquid was inoculated to 100 mL of LB medium containing 40 mg/L of kanamycin sulfate, cultured at 30° C. for 4 hours with shaking at 120 rpm, and after the addition of 0.5 mM of IPTG, incubated further for 20 hours. The obtained bacterial cells were washed twice with a reaction buffer (100 mM Tris-HCl buffer, pH 8.5).
The resting cells obtained were suspended in a reaction buffer and reacted at 28° C. with shaking at 300 rpm. 20 mM of 4-nitrophenylalanine was added to the medium every 24 hours while the reaction was continued. The reaction supernatant was periodically collected to quantify 4-nitrophenylalanine and 4-nitrocinnamic acid.
The supernatant was transferred to a centrifuge tube, collected by centrifugation, and the reaction product was quantified using high performance liquid chromatography (HPLC).
The same experiment was also performed using the host Escherichia coli as a control.

[3] = Conversion of 4-nitrophenylalanine to 4-nitrocinnamic acid in 2 L jar fermenter; format: cell-based, Escherichia coli; conditions: 24 hours
Protocol: The CamPAL-producing Escherichia coli strain described in Example 1 was used (cell mass: 20 g/L to 30 g/L) was used in a reaction of converting the substrate 4-nitrophenylalanine (group weight 21 g/L) to 4-nitrocinnamic acid, using a 2 L jar fermenter (BNR-C-2LS manufactured by Maruhishi Bio Engineering Co., Ltd.) as a reactor.
Specifically, the CamPAL-producing Escherichia coli strain was precultured using 15 mL of LB medium with […] kanamycin sulfate at 28° C. for 16 hours with stirring at 300 rpm. 12 mL of this preculture liquid was inoculated to a 2 L jar fermenter containing 1.2 L TB medium with 80 mg/L kanamycin sulfate, and cultured at 30° C. for 4 hours with aeration of 3.5 L/min and stirring at 500 rpm. […] The mass of bacterial cells calculated from the value of OD600 was 30 g/L.
After completion of the culture, 21 g/L of 4-nitrophenylalanine was added to the culture medium as the substrate, and the pH was adjusted to 8.5 using a 2N NaOH aqueous solution. […] The reaction solution was collected during the reaction, and 4-nitrophenylalanine and 4-nitrocinnamic acid were quantified as follows: the reaction solution was transferred to a centrifuge tube, the supernatant was recovered by centrifugation, and the reaction product was quantified using HPLC under the above conditions.

[4] = Search for carbon source for conversion of 4-nitrocinnamic acid to 4-aminocinnamic acid; format: cell-based, Escherichia coli; conditions: glycerol added at 10% (compared with glucose, fructose), 2 g/L 4-nitrocinnamic acid, pH 8, 37° C., 24 hours
Protocol: The CamPAL-producing Escherichia coli strain described in Example 1 was first precultured for 16 hours in the same manner as in Example 2. 1 mL of this pre-cultured liquid was inoculated to 100 mL of TB medium containing 80 mg/L kanamycin sulfate, cultured at 30° C. for 4 hours with stirring at 120 rpm, and after the addition of 0.1 mM IPTG, cultured further for 16 hours. 2 g/L of 4-nitrocinnamic acid was added to the resultant culture solution, the pH was adjusted to 8 using 2N NaOH, and glucose, fructose, or glycerol was added as a carbon source at a final concentration of 10%. The cells were cultured at 37° C. for 24 hours with stirring at 300 rpm to cause reaction.
During the reaction, the reaction solution was collected, and 4-aminocinnamic acid was quantified. Specifically, the reaction solution was transferred to a centrifuge tube, the supernatant was recovered by centrifugation, and the reaction product was quantified using the HPLC.

[5] = Conversion efficiency by CamPAL at different bacteria mass and substrate mass (resting cells); format: cell-based, Escherichia coli; conditions: cell mass 20 g/L or 30 g/L, substrate mass 21 g/L, 37° C., pH 8.5, 24 hours
Protocol: The CamPAL-producing Escherichia coli strain described in Example 1 was precultured using 5 mL of LB medium containing 40 mg/L kanamycin sulfate at 28° C. for 16 hours with stirring at 300 rpm. 1 mL of this pre-cultured solution was inoculated to 100 mL of TB medium having the following composition after the addition of 80 mg/L kanamycin sulfate, and cultured at 30° C. for 4 hours with shaking at 120 rpm. After the addition of 0.1 mM of IPTG, the cells were further cultured for 20 hours, recovered from the culture solution by centrifugation, and stored at −80° C. The frozen cells thus obtained were weighed at 10 g/L, 20 g/L and 30 g/L, while the substrate 4-nitrophenylalanine was also weighed at 4.2 g/L, 21 g/L, and 42 g/L.
Each mass of the cells and each mass of the substrate were suspended in a reaction buffer (100 mM Tris-HCl buffer, pH 8.5), and a resting microbial cell reaction was carried out at 37° C. with stirring at 300 rpm. After the reaction for 24 hours, the reaction solution was collected, and the amounts of 4-nitrophenylalanine and 4-nitrocinnamic acid were quantified. For the quantification of each reaction product, the supernatant of the obtained (bacterial cell) reaction solution was transferred to a centrifuge tube, collected by centrifugation, and the reaction product was quantified using the HPLC mentioned above.

[6] = Deammonase activity of purified enzymes by absorptiometry; format: biochemical; conditions: purified recombinant enzyme 2 mg/mL, 50 mM Tris-HCl pH 8.6, 0.3 to 9.6 mM substrate, 380 nm, 10 minutes
Protocol: • Apparatus: BECKMAN COULTER DU800 UV/Vis Spectrophotometer • Amount of enzyme: 2mg/mL • Buffer solution: 50mM Tris-HCl buffer (pH=8.6) • Concentration of substrate: 0.3mM to 9.6mM • Volume: 200μL • Measurement wavelength: From 4-nitrophenylalanine to 380 nm 4-nitrocinnamic acid: From phenylalanine to 305 nm cinnamic acid: • Measurement period: 10 minutes • Measurement temperature: 25° C.
Each of the CamPAL-, LiePAL-, and RgPAL-producing Escherichia coli strains was inoculated to 5 mL of LB medium containing 30 mg/L kanamycin sulfate, and cultured at 28° C. for 16 hours (hereinafter also may be referred to as “preculture”). […]
The enzyme activity was measured and quantified by measuring the absorbance of the reaction product at the absorption wavelength for 10 minutes using an absorptiometer.
Specifically, regarding the deammonase activity for phenylalanine, 2 mg/mL of each of the above enzymes was added to 50 mM Tris-HCl buffer (pH=8.6) containing 0.3 to 9.6 mM phenylalanine to cause reaction, and the change in absorbance at a wavelength of 305 nm resulting from the formation of cinnamic acid was measured for 10 minutes. […]

| Substance | 4-aminocinnamic acid produced from 7 g/L of 4-nitrophenylalanine [1] [g/L] | conversion of 4-nitrophenylalanine to 4-nitrocinnamic acid over time ([2]; 20 mM 4-nitrophenylalanine added every 24 hours) | amount of 4-nitrocinnamic acid in the reaction supernatant [2] | 4-nitrocinnamic acid converted from 21 g/L of 4-nitrophenylalanine ([3]; 2 L jar fermenter, cell mass 30 g/L, pH 8.5, 37° C., without aeration) [g/L] | 4-nitrocinnamic acid converted from 21 g/L of 4-nitrophenylalanine ([3]; same reaction, aeration rate 0.04 L/min) [g/L] | amount of 4-aminocinnamic acid obtained [4] | conversion efficiency of 4-nitrophenylalanine to 4-nitrocinnamic acid (yield) [5] [%] | capacity to convert 4-nitrophenylalanine to 4-nitrocinnamic acid [6] |
| --- | --- | --- | --- | --- | --- | --- | --- | --- |
| CamPAL: phenylalanine ammonia-lyase derived from Camellia sinensis, SEQ ID NO: 1, expressed in E. coli BL21(DE3) | 4.7 | proceeded continuously | significantly higher than that of the control Escherichia coli | 18 | 12 | largest amount of 4-aminocinnamic acid was obtained when glycerol was added | ≥ 60 | have a capacity to covert 4-nitrophenylalanine to 4-nitrocinnamic acid |
| LiePAL: phenylalanine ammonia-lyase derived from Lithospermum erythrorhizon, SEQ ID NO:3, expressed in E. coli |  |  | significantly higher than that of the control Escherichia coli |  |  |  |  | have a capacity to covert 4-nitrophenylalanine to 4-nitrocinnamic acid |
